Patent US7935706B2, “Nitrogen-containing heterocycle derivatives substituted with cyclic group” (Shionogi & Co., Ltd., priority 2006, dated 2011)
Like-named read-outs stand apart in the source and are kept apart here.

Key:
NR1/NR2B receptor = target: T1, NR1/NR2B receptor (Rattus norvegicus, UniProt P35439+Q00960); assay: Test of binding with NMDA receptor (NR1/NR2B receptor): competition with [3H]-Ifenprodil on rat cerebral cortex membrane specimen
T1 construct: from tissue; host or cells: rat cerebral cortex membranes (male Slc: Wistar rat)
Method: Test of Binding with NMDR Receptor (NR1/NR2B Receptor)
Using Ifenprodil which is an antagonist specific for a NR1/NR2B subtype receptor as a ligand, an experiment of competition between a receptor and a test compound was performed.
Using a male Slc: Wistar rat as an animal, a brain was isolated after decapitation, and a cerebral cortex was fractionated. The cerebral cortex was homogenized with a 20-fold amount of an ice-cooled 50 mM Tris/HCl buffer (pH 7.4), and the homogenate was centrifuged at 4° C. and 27,500×g for 10 minutes. The resulting precipitate was suspended in the same buffer, and this was again centrifuged. This operation was repeated for three times, the resulting precipitate was suspended in a buffer, and this was stored at −80° C. Immediately before an experiment, the frozen suspension was thawed at room temperature, this was centrifuged at 4° C. and 27,500×g for 10 minutes, and the resulting precipitate was suspended in a buffer. Further, the suspension was diluted 10-fold with a buffer, and this was used as a membrane specimen in an experiment. In a binding experiment, to 470 μl of the membrane specimen were added […] of each of test compounds having different concentrations, 10 μl of a labeled ligand [^3H]-Ifenprodil and 10 μl GBR-12909, followed by incubation at an ice temperature for 120 minutes. A concentration of [^3H]-Ifenprodil of the labeled ligand was finally 5 nM, and a concentration of GBR-12909 was finally 3 μM. For measuring a total binding amount, DMSO as a solvent was used and, for measuring a non-specific binding amount, 100 μM Ifenprodil was used. GBR-12909 was added in order to block binding of [^3H]-Ifenprodil to non-polyamine-sensitive site. After incubation, a bound formand a free foramwere separated using Whatman GF/C filter (manufactured by Whatman), and the filter was washed with 2.5 ml ice-cooled buffer four times. The filter was immersed in liquid scintillation (Cryasol I, manufactured by Nacalai tesque), and radioactivity (dpm) was measured with a liquid scintillation counter. From a measured value, a binding inhibition rate (%) was obtained by the following equation, and a dose at which binding is inhibited 50% (IC50) was calculated. A formula of GBR-12909 (vanoxerine) is shown below.
Binding inhibition rate(%)=100−[(binding amount in the presence of test compound−non-specific binding amount)/(total binding amount−non-specific binding amount)]×100

[1] = target: T2, NMDA receptor (NR1 subunit and NR2B subunit) (Mus musculus, UniProt P35438+Q01097); assay: Measurement of expression of NMDA receptor and Ca ion influx amount (glutamic acid/glycine-induced, HEK293 cell co-expressing NR1 and NR2B subunits, Fluo-3/AM); assay type: cell-based
T2 construct: expressed in transfected cells; host or cells: HEK293 cells, transient transfection with pcDNA3.1 plasmids
Method: Measurement of Expression of NMDA Receptor and Ca Ion Influx Amount
A complementary DNA (cDNA) of a mouse NMDA receptor subunit was transiently introduced into a HEK293 cell and, after 1 day from introduction, change in a glutamic acid/glycine-induced intracelluar Ca amount was measured using a Ca ion reactive fluorescent coloring matter.
The HEK293 cell was cultured, and passaged using a modified Dulbecco's Eagle medium (DMEM, low glucose).
The HEK293 cell (20,000/well) was seeded on a 96-well plate, a NR1 subunit and a NR2B subunit of the NMDA receptor incorporated into the pcDNA3.1 plasmid were transiently introduced into a cell, and the subunits were co-expressed. An introduction amount of a DNA was 0.025 μg in the case of the NR1 subunit, and 0.075 μg in the case of NR2B subunit per well. For the cell after introduction, cell death was inhibited using 50 μM of the NMDA receptor antagonist MK-801.
For adjusting a test compound and washing a cell, Krebs/Ringer/Hepes buffer (KRH, Ca: 5 mM) was used.
After 1 day from introduction, the NMDA receptor antagonist MK-801 was washed out using the KRH buffer, and a Ca ion indication fluorescent coloring matter Fluo-3/AM was made to be taken into the cell. Ca ion influx was induced with 20 μM glutamic acid/2 μM glycine. Change in a fluorescent amount due to Ca ion influx into the cell was measured at excitation of 480 nm using a fluorescent imaging system FDSS 3000.
From a measured value of the test compound, a Ca ion influx inhibition rate (%) was obtained by the following equation, and a dose at which influx is inhibited 50% (IC50) was calculated.
Ca ion influx inhibition rate(%)=100−[(fluorescent amount in the presence of test compound−background fluorescent amount)/(total fluorescent amount−background fluorescent)]×100

[2] = [3H]-Ifenprodil 5 nM, GBR-12909 3 μM, rat cerebral cortex membranes, ice temperature 120 minutes, read-out: NR2B (IC50 μM)
[3] = Ca ion influx induced with 20 μM glutamic acid/2 μM glycine, HEK293 cell with mouse NR1/NR2B, read-out: Ca2+ IC50
[4] = same binding test, read-out: IC50 (binding with NR1/NR2B receptor)
[5] = same Ca ion influx test, read-out: IC50 (Ca ion influx inhibition)

T1 sequence (Q00960 27-1482, other chains not shown): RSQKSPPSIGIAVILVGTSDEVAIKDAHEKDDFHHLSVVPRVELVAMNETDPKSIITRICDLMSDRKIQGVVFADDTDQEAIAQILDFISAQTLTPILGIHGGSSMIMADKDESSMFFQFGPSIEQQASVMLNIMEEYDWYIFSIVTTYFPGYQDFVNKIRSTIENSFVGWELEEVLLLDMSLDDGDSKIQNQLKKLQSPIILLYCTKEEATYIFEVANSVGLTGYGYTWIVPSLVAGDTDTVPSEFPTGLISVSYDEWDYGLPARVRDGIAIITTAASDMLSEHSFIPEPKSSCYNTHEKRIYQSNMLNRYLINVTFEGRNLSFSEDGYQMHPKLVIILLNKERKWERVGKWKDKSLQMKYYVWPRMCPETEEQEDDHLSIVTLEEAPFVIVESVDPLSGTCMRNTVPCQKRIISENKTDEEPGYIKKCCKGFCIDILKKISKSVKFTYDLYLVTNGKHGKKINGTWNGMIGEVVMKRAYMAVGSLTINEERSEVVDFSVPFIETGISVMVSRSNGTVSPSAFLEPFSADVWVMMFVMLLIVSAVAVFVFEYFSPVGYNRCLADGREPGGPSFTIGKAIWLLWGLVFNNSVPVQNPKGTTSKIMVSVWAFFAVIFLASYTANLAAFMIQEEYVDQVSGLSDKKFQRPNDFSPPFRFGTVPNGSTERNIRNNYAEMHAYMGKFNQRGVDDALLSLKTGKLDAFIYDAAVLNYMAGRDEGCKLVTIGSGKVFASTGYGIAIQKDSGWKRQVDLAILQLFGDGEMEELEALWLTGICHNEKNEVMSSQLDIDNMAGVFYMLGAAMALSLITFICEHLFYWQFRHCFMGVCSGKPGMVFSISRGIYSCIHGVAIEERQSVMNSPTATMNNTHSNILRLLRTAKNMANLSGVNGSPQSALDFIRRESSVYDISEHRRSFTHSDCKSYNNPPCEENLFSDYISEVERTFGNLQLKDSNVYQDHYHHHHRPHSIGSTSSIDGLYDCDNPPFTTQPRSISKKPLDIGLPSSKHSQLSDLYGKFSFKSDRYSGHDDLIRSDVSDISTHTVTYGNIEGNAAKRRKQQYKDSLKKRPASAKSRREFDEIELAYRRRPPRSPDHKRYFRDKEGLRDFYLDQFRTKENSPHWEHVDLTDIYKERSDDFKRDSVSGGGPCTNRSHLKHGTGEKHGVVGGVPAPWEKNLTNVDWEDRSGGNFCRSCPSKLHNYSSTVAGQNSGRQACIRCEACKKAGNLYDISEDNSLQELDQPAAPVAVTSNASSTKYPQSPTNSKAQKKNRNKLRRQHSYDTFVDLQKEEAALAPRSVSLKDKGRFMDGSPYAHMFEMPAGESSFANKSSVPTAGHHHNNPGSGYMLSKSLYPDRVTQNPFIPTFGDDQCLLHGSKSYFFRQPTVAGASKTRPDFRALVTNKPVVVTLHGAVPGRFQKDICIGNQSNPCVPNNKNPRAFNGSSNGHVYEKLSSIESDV
T2 sequence (Q01097 27-1482, other chains not shown): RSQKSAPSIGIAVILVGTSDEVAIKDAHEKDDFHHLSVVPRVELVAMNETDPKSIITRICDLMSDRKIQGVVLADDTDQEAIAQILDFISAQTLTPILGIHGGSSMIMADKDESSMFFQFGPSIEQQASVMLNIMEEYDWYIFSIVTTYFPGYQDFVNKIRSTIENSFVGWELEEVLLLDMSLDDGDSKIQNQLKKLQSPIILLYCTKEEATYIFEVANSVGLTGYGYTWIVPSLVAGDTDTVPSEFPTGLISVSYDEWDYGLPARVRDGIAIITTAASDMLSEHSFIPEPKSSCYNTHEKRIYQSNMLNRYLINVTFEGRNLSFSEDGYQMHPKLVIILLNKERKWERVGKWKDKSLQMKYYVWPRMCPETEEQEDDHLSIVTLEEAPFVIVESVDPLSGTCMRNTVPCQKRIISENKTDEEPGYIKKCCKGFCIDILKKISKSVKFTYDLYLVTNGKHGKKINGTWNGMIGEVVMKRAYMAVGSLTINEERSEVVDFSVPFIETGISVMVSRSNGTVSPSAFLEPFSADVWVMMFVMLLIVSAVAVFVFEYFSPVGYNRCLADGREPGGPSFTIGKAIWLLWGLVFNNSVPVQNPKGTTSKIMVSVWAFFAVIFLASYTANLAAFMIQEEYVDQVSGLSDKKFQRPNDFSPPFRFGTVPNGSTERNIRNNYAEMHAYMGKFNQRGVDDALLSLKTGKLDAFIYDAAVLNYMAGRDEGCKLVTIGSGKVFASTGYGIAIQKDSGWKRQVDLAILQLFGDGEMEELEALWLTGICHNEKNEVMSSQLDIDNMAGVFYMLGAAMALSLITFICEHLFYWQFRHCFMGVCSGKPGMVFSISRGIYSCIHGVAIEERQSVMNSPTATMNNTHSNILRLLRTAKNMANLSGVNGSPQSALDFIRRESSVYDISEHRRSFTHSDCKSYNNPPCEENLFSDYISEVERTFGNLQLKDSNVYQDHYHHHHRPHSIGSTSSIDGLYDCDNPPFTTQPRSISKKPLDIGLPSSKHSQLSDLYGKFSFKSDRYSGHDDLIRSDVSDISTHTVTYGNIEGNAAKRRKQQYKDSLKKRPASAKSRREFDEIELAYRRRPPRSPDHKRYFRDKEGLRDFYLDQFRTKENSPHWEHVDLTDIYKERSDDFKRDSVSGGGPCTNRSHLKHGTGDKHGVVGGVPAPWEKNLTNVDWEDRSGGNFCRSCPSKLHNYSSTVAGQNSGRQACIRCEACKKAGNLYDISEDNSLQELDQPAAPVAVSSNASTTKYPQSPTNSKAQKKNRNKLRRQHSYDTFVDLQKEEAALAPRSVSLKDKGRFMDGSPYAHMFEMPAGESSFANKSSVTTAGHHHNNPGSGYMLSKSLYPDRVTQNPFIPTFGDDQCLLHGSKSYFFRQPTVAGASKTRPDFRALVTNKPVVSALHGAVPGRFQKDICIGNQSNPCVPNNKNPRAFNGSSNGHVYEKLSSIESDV

| Compound | IC50 (NR1/NR2B receptor; [2]) [µM] | melting point | IC50 [1, 3] [nM] | IC50 (NR1/NR2B receptor; [4]) [µM] | IC50 [1, 5] [nM] |
| --- | --- | --- | --- | --- | --- |
| O=C(NCCC1CCN(c2ccc(C(F)(F)F)cc2)CC1)c1ccc(=O)[nH]c1 [Compound I-2] | 0.033 | 232 to 233 °C (dec.) | 14 |  |  |
| O=C(NCCC1CCN(c2ccc(Br)cc2)CC1)c1ccc(=O)[nH]c1 [Compound I-5] | 0.043 | 236 to 238 °C (dec.) | 20 |  |  |
| O=C(C=C1CCN(c2ccc(C(F)(F)F)cn2)CC1)Nc1ccc2[nH]c(=O)sc2c1 [Compound I-66] | 0.09 | 219 to 220 °C | 25 |  |  |
| O=C(Nc1ccc2[nH]c(=O)oc2c1)C(=O)N1CCN(c2ccc(Cl)cn2)CC1 [Compound I-204] |  | 241 to 243 °C |  | ≤ 0.1 |  |
| C[C@@H]1CN(C(=O)C(=O)Nc2ccc3[nH]c(=O)oc3c2)CCN1c1ccc(F)c(Cl)c1 [Compound I-206] |  | 107 to 108 °C |  | ≤ 0.1 |  |
| C[C@@H]1CN(C(=O)C(=O)Nc2ccc3[nH]c(=O)oc3c2)CCN1c1ccc(C(F)(F)F)cn1 [Compound I-209] |  | 197 to 198 °C |  | ≤ 0.1 | ≤ 100 |
| COc1ccc(N2CCN(C(=O)C(=O)Nc3ccc4[nH]c(=O)oc4c3)[C@H](C)C2)cc1Cl [Compound I-249] |  | 123 to 125 °C |  | ≤ 0.1 | ≤ 100 |

The next lines start with the values.

| IC50 (NR1/NR2B receptor; [2]) [µM] | melting point | IC50 [1, 3] [nM] | IC50 (NR1/NR2B receptor; [4]) [µM] | IC50 [1, 5] [nM] | Compound |
| --- | --- | --- | --- | --- | --- |
| 0.043 | 232 to 234 °C |  |  |  | O=C(NCCC1CCN(c2ccc(Cl)cc2)CC1)c1ccc(=O)[nH]c1 [Compound I-1] |
|  | 209 to 211 °C |  | ≤ 0.1 |  | O=C(C=C1CCN(c2ccc(F)c(Cl)c2)CC1)Nc1ccc2[nH]c(=O)oc2c1 [Compound I-205] |
|  | 230 to 232 °C |  | ≤ 0.1 | ≤ 100 | O=C(NCCC1CCN(c2ccc(Cl)c(F)c2)CC1)c1ccc(=O)[nH]c1 [Compound I-208] |
|  | 224 to 226 °C |  | ≤ 0.1 |  | COc1ccc(N2CCN(C(=O)C(=O)Nc3ccc4[nH]c(=O)oc4c3)CC2)cc1Cl [Compound I-247] |
